Our source for the IC50 values is ChEMBL document CHEMBL1138332, “Synthesis of natural product-inspired inhibitors of Mycobacterium tuberculosis mycothiol-associated enzymes: the first inhibitors of GlcNAc-Ins deacetylase” (J Med Chem, 2007).

Experiment [1] concerns the target T1, 1D-myo-inositol 2-acetamido-2-deoxy-alpha-D-glucopyranoside deacetylase (Mycobacterium tuberculosis, UniProt P9WJN3).
T1 sequence (P9WJN3 whole entry): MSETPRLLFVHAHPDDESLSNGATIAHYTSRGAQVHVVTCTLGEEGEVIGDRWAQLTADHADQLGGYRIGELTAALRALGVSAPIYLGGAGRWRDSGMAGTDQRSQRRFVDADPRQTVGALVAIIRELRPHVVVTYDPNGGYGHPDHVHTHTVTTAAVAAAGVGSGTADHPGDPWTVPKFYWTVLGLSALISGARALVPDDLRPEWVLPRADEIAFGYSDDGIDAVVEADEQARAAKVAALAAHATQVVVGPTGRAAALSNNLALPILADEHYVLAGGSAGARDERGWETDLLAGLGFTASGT
Description: Inhibition of Mycobacterium tuberculosis MshB by fluorescence-detected HPLC assay.

For experiment [2], the target named is T2, Mycothiol S-conjugate amidase (Mycobacterium tuberculosis, UniProt P9WJN1).
T2 sequence (P9WJN1 whole entry): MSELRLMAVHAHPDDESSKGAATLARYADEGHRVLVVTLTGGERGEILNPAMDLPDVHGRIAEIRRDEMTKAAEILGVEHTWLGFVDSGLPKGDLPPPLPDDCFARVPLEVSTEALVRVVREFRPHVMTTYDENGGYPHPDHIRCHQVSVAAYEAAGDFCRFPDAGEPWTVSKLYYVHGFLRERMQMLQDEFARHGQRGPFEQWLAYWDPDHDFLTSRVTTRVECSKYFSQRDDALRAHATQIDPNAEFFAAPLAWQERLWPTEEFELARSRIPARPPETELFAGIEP
The experiment can be described thus: Inhibition of Mycobacterium tuberculosis MCA by fluorescence-detected HPLC assay.

As a reminder, the IC50 is the concentration that inhibits the measured activity by half. For the compound `CC(C)(C)C(=O)ON[C@@H](CCc1ccccc1)C(=O)N[C@H]1[C@H](O)[C@@H](O)[C@H](CO)O[C@H]1SC1CCCCC1`, the IC50 in experiment [1] is over 200 µM; in experiment [2] it was 145 µM.
In the case of `O=C(N[C@H]1[C@H](O)[C@@H](O)[C@H](CO)O[C@H]1SC1CCCCC1)c1ccc(-c2ccc(Cl)cc2)o1` (single isomer, unassigned), the figures for the IC50 in experiment [1] and in experiment [2] were 7 µM and 33 µM, respectively.
For `O=S(=O)(CCCCc1ccccc1)N[C@H]1[C@H](O)[C@@H](O)[C@H](CO)O[C@H]1SC1CCCCC1` (single isomer, unassigned), the half-maximal inhibitory concentration (IC50) stood at 101 µM in experiment [1] and 120 µM in experiment [2].
For `O=C(N[C@H]1[C@H](O)[C@@H](O)[C@H](CO)O[C@H]1SC1CCCCC1)C1CCOC(c2cccc(F)c2)=N1` (single isomer, unassigned) the same measures were 10 µM and over 200 µM.
As to `O=C(N[C@H]1[C@H](O)[C@@H](O)[C@H](CO)O[C@H]1SC1CCCCC1)C1COC(c2cccc(F)c2)=N1` (single isomer, unassigned), the IC50 in experiment [1] is 28 µM; in experiment [2], over 200 µM.
For `O=S(=O)(/C=C/CCc1ccccc1)N[C@H]1[C@H](O)[C@@H](O)[C@H](CO)O[C@H]1SC1CCCCC1` (single isomer, unassigned) the same measures were 105 µM and 90 µM.
